Data on 1 substance can be found in patent US10233222B2, “Methods, compositions, diagnostics and assays for the treatment of Alzheimer's disease” (priority 2014, dated 2019).

The target in this assay is T1, Aβ42-SYP interaction (Homo sapiens, UniProt P08247).
T1 construct: His6; made in house; host or cells: insect cells (SYP)
The experiment in a line: SPR binding of Aβ42 to SYP in the presence of cholesterol hemisuccinate. The following applies: increasing concentrations of cholesterol hemisuccinate. As for the experimental part:
Surface Plasmon Resonance: Binding studies were performed on a Biacore 3000 or a BiOptix 404 pi, with similar results. For the Biacore, a CMS chip was used and for the BiOptix instrument, a CMV150 chip was employed. […] Recombinant human SYP, containing a His(6)-tag expressed in insect cells, was a gift of J. Mapes and A. DeFazio at CU Boulder. Bovine serum albumin (Sigma, St. Louis, Mo.), Interleukin 1 receptor antagonist (gift of Synergen, Inc., Boulder, Colo.), and SLC35F1 (gift of G. Chang, UCSD) were used as control proteins. Binding at a flow rate of 20 μl/min was in 0.15M sodium chloride, 0.03M sodium HEPES, pH 7.4, 0.009% Fos-choline 14 (Anatrace, Santa Clara, Calif.) for all samples.
We therefore asked if cholesterol inhibits the Aβ42-SYP interaction.

T1 sequence (P08247 whole entry): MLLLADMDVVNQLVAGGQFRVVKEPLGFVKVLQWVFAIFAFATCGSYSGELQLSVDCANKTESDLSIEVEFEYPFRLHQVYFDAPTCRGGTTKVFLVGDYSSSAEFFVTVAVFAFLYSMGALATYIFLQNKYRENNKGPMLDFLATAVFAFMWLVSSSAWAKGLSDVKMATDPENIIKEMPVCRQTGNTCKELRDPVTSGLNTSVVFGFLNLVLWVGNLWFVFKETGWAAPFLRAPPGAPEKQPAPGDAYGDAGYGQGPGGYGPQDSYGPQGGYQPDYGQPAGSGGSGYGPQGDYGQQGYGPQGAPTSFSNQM

Take cholesterol hemisuccinate: the “inhibition of binding of Aβ42 to SYP” value is “robust concentration dependent inhibition of binding”.
